Reference: US20210100909A1, “Polymeric Methylprednisolone Conjugates and Uses Thereof” (United States Government As Represented By The Department …, priority 2019, published 2021)

Experiments:
[1] = test system: RANKL; test: RANKL mRNA and OPG/RANKL ratio in bone; assay type: in vivo, rat; settings: whole bone RNA
Description: (§1) Total bone RNA was extracted as previously described with some modifications. Briefly, long bones were dissected free of soft tissues, and bone marrow were flushed away with PBS using a 27 G ½ needle-syringe. The bone samples (˜1 g) were longitudinally cut into small piece and then digested 3 times with 2 mg/ml collagenase type I (Gibco, >150 Units; 20 ml), one time with 5 mM EDTA (Sigma-Aldrich, 10 ml)), and one more with the collagenase and EDTA, each for 25 min on a Shaker with rotation at 150 rpm at 370 C. Following the digestions, the bone samples were crushed using a mortar and pestle in liquid nitrogen. RNA was extracted from the lysate using the TRizol reagent (Sigma Aldrich) according to the manufacturer's instructions.
(§2) Real time PCR was used for the determination of mRNA levels as described previously. One μg of total RNA was used to synthesize the first strand cDNA by the High Capacity cDNA Reverse Transcription Kit (Applied Biosystems). qPCR was performed with an Applied Biosystems (ABI) Via 7 thermal cycler using ABI Taqman 2×PCR mix and ABI Assay on Demand qPCR primers. Changes in expression were calculated using the 2-ΔΔCt method using 18S RNA as the internal control.

[2] = test system: nitrotyrosine; test: Nitrotyrosine immunostaining of spinal cord (oxidative stress); assay type: in vivo, rat; settings: 7 days post injury
Description: (§3) Injectable methylprednisolone (MP) solution (62.5 mg/ml) was obtained from Pfizer. MP was conjugated to the chain terminus of methoxy HPMA, an amphiphilic macromolecular prodrug. In parallel, IRDye® 800CW-MP-HPMA (MP-Nano-IRDye) and Alexa Fluor 488-labeled HPMA-MP (MP-Nano-Alexa 488) were also synthesized for optical imaging to visualize the bio-distribution of MP-Nano. Immediately after spinal cord transection, animals were administered an intravenous injection of freshly prepared MP-Nano (60 mg/kg, equivalent to 20% free MP dose at 30 mg/kg), MP (30 mg/kg) or vehicle (propylene glycol) by tail vein, followed by implantation of an Alzet pump (Durect Co, Cupertino, Calif., USA) which provided a 24-h infusion of MP at 5.4 mg/kg/hr (SCI-MP), or vehicle (propylene glycol) (SCI-veh and SCI-Nano-MP) into a subcutaneous pocket. These dosing of MP corresponds on an mg per kg basis to that prescribed by the Bracken protocol. Sham-transected animals underwent laminectomy and implantation of the same Alzet pumps, with vehicle (propylene glycol) infusion instead, as baseline controls.
(§4) At 2 and 7 days after injury, animals (sham, SCI-veh, SCI-MP, SCI-Nano-MP, n=5 animals for each condition and time point) were perfused transcardially with 4% paraformaldehyde. […] Fluorescence intensity quantifications were performed in the ImageJ software (NIH).

[3] = test system: TNF-α; test: TNF-α mRNA in gastrocnemius and soleus muscle; assay type: in vivo, rat; settings: 2 days post injury
Description: (§5) Total RNAs from gastrocnemius, soleus and bone were extracted using the TRI reagent (Sigma-Aldrich). For western blot analysis, gastronemius and soleus muscle tissue were lysed in RIPA buffer. Protein concentrations were determined using the BCA method. 30 μg protein lysate was used for the SDS-PAGE protein separation, and blots were probed with FOXO1 antibody.
as §2

[4] = test system: TNF-α; test: TNF-α immunostaining of spinal cord (inflammation); assay type: in vivo, rat; settings: 7 days post injury
Description: as §3, §4

[5] = test system: gastrocnemius muscle; test: Muscle histology (H&E) of gastrocnemius, fiber cross-sectional area; assay type: in vivo, rat
Description: Pieces of gastrocnemius muscle were frozen in isopentane pre-cooled on dry ice and stored at −80° C. Transverse sections (10 μm) were then cut on Leika CM3050S cryostat and mounted directly onto cooled glass slides followed by hematoxylin & eosin (H&E) staining. Stained sections were viewed in the EVOS FL Auto system (Life Technologies). Fiber size measurement and distribution was performed using the ImageJ software (NIH).

[6] = test system: MAFbx/atrogin-1 and MuRF1; test: MAFbx and MuRF1 mRNA in muscle; assay type: in vivo, rat; settings: 2 days post injury
Description: as §5, §2

[7] = test system: FOXO1; test: FOXO1 protein level in muscle (western blot); assay type: in vivo, rat
Description: as §5

[8] = Body weight and food intake after acute SCI; assay type: in vivo, rat
Description: All animals were maintained on a 12:12-h light/dark cycle with lights on at 07:00 h in a temperature-controlled (20±2° C.) vivarium. Spinal cord transection surgery was performed as previously described. In brief, 9-week-old Wistar rats (Charles River) were anesthetized by inhalation of isofluorane (3-5%) and hair was removed with a clipper. Skin over the back was cleaned with betadine and isopropyl alcohol. After making a midline incision the spinal cord at the site of transection (T4) was visualized by laminectomy, and the spinal cord was transected with microscissors. The space between transected ends of the spinal cord was filled with surgical sponge and the wound was closed in two layers with suture. Urine was manually expressed 3 times daily until automaticity develops, then as needed. Baytril was administered for the first 3 to 5 days postoperatively then as needed for sign of cloudy or bloody urine or wound infection. Sham-transected animals received a laminectomy-only surgery.
Injectable methylprednisolone (MP) solution (62.5 mg/ml) was obtained from Pfizer. MP was conjugated to the chain terminus of methoxy HPMA, an amphiphilic macromolecular prodrug to produce a polymeric methylprednisolone conjugate. […]

[9] = intravenous; cited from earlier work
[10] = Fasting blood glucose level; assay type: in vivo, rat; settings: 2 days post injury
Text: Rats were fasted overnight in clean cages with free access to water in new clean bottles. The next morning prior to sacrifice, fasted blood glucose measurement was taken by applying tail blood to a Contour Blood Glucose Monitoring System (Bayer).

[11] = test system: G6PC; test: G6PC gene expression in gastrocnemius muscle (qPCR); assay type: in vivo, rat; settings: SCI animals
Description: as §5, §2

[12] = Areal bone mineral density by DXA; assay type: in vivo, rat
Description: (§6) Areal bone mineral density (BMD) measurements were performed by using a small animal dual-energy X-ray absorptiometer (DXA) (Lunar Piximus, Fitchburg, Wis., USA) as previously described. Volumetric BMD and bone architecture of the distal femur were assessed by a Scanco μCT scanner (μCT-40; Scanco Medical AG, Bassersdorf, Switzerland) at […] isotropic voxel size as previously described.

[13] = test system: TRAP, calcitonin receptor (CTR) and Integrin β3; test: Osteoclastic marker mRNA in bone (TRAP, CTR, Integrin β3); assay type: in vivo, rat; settings: whole bone RNA
Description: as §1, §2

[14] = test system: SOST; test: SOST mRNA in bone; assay type: in vivo, rat; settings: p<0.05
Description: as §1, §2

[15] = Bone architecture by high-resolution μCT; assay type: in vivo, rat
Description: as §6

[16] = test system: GLUT4; test: GLUT4 gene expression in gastrocnemius muscle (qPCR); assay type: in vivo, rat; settings: SCI animals
Description: as §5, §2

[17] = Skeletal muscle mass after acute SCI; assay type: in vivo, rat
Description: At the end of animal study, animals were euthanized by inhalation of isofluorane prior to harvesting of tissue for study. Gastrocnemius, soleus, plantaris, EDL, bicep and tricep muscle on both sides were dissected, weighed and stored at −80° C. for further analysis. The leg was removed using sterile technique; careful dissection was performed to free the head of the femur from the pelvis. To preserve bone for micro-CT study, the left leg was removed and placed into tubes containing 4% PFA overnight, after which the PFA will be replaced with 70% ethanol for storage. The right femur and tibia (n=4-5 per group) were placed in ice-cold Minimum Essential Alpha Medium (α-MEM), and then immediately processed for extraction of total RNA from bone.

- decrease in the OPG/RANKL ratio vs. sham [1]: about three-fold
- mRNA level of RANKL vs. sham [1]: ~7 fold
- change of fiber cross-sectional area [5]: −40%
- cross-sectional area and fiber size distribution ([5]; in words): significant left shift of fiber size
- FOXO1 protein level in gastrocnemius and soleus muscle vs. SCI-veh [7]: drastically elevated
- G6PC expression vs. sham [11]: ~8 fold
- decrease in BMD at the distal femur vs. sham [12]: 11%
- decrease of BMD at the proximal tibia vs. sham [12]: 11.2%
- osteoclastic markers TRAP, CTR and Integrin β3 mRNA vs. sham [13]: increase
- levels of SOST mRNA vs. Sham [14]: −22%
- cortical architecture of the femur midshaft ([15]; cortical bone volume, number, thickness, separation): No significant change
- change of GLUT4 expression [16]: −56.5%
- muscle mass gastrocnemius vs. sham ([17]; NS): −12.5%
- muscle mass biceps vs. sham ([17]; p<0.01): −14.6%
- muscle mass EDL vs. sham ([17]; p<0.05): −10.4%
Compound: C[C@H]1C[C@@H]2[C@H]([C@@H](O)C[C@@]3(C)[C@H]2CC[C@]3(O)C(=O)CO)[C@@]2(C)C=CC(=O)C=C12 [MP, methylprednisolone]
- change of SCI-induced accumulation of nitrotyrosine vs. SCI-veh [2]: −40.0%
- mRNA level of TNF-α in gastrocnemius and soleus muscle [3]: significantly increased
- change of SCI-induced TNF-α expression vs. SCI-veh [4]: −32.5%
- MAFbx and MuRF1 mRNA level in gastrocnemius muscle [6]: more significant induction
- MAFbx mRNA level in soleus vs. SCI-veh group [6]: more significant increases
- body weight loss ([8]; Day 1 and Day 2 post injury, vs control animals): significantly higher weight loss
- food intake ([8]; vs all other experiment groups): Pronounced decrease of food intake
- pharmacokinetic half-life [9]: 2.5 to 3 h
- fasting glucose level vs. sham [10]: +10.4%
- trabecular bone architecture of the distal femur ([15]; μCT structural parameters): more significant change in each of those structural parameters than SCI-veh group
